EP2444396A1, “PHOTOPROTECTIVE COMPOSITION” (Apoteknos Para La Piel, S.L., priority 2009, dated 2010)
In brackets after ≈: the same amount, converted by molar mass. Marks after values point to notes of the source that are not given here.

Legend:
[1] = Absorption spectrum in methanol (195 - 400 nm); assay type: physicochemical; conditions: peak wavelength, 10 mg/ml
Experimental: In order to determine the absorption spectrum, a solution of 10 mg/ml of methanol was prepared from each of the substances. The methanol in turn was used to adjust the zero absorbance in each of the wavelengths in the range of 195 - 400 nm.

[2] = Solubility in organic solvents; assay type: physicochemical; conditions: methanol, organic solvent or mixture, thermodynamic from solid; MeOH
[3] = Photostability evaluation (irradiation in MeOH, TLC analysis); assay type: physicochemical; conditions: saturated solution in 200 mL MeOH, 2 hours of irradiation, isolated by column chromatography
Experimental: All the irradiations preformed in the photostability studies were carried out in an ACE 7840 photoreactor using a 450W power ACE 7825 lamp.
The solvent used in the photostability test was methanol [MeOH] (ppa) (250 mL), using a concentration of […] of p-nitrolophine. The solution was irradiated for 2 hours, samples being taken at 10 minutes, 20 minutes, 1 hour and 2 hours, and being dried in a rotating evaporator. Each sample was analyzed by thin layer chromatography (TLC in Silica gel) using petroleum ether:ethyl acetate (4:1) as eluent. The chromatography plates were viewed under a 254 nm lamp and a 366 nm lamp, as well as by means of simultaneous viewing under both lamps (254 and 366 nm).
Specifically, three photoproducts (three blots) could be determined, which were isolated by preparative TLC.
A saturated solution of m-nitrolophine in MeOH was prepared to perform the study since the solubility in this solvent is low (approximately 0.2 mg/mL). Briefly, an amount of m-nitrolophine sufficient to ensure the saturation in 200 mL of MeOH throughout the night was left stirring. The solution was filtered and irradiated for 2 hours, samples of 10 mL being taken at 10 minutes, 20 minutes, 1 hour and 2 hours, and being dried in rotating evaporator. […]

[4] = tested on: Erythema induced by UVB radiation in mouse; test: Photoprotection: erythema induced by UVB radiation in mouse skin; assay type: in vivo; design: key to Erythema induced by UVB radiation in mouse: presence (+); absence (-); conditions: 0.5% gel topical, about 2.5 kJ/m^2 UVB, 24 hours after exposure; for % Protection: percentage of protected animals
Source text: The effect of p-nitrolophine and m-nitrolophine on erythema due to exposing the mouse skin to an irradiation source at maximum in the UVB region has been studied in these assays. The results obtained have been compared with the effect of 4-methylbenzylidene camphor (P5000) a substance considered as a UVB solar filter and with the effect of butyl methoxydibenzoylmethane (P1789) an UVA type filter, both products being commonly used in antisolar cosmetics.
35 male mice weighing more than 20 grams have been used. After receiving them, the animals were acclimated for 7 days at the place where the assays were preformed, they were being placed in a cage with controlled temperature (22°C), with relative humidity between 50% and 75%, replacing fresh filtered air approximately 10 times per hour and with 12 h light/dark cycles (7.00 - 19.00 light and from 19.00 to 7.00 dark). For this period and during the experimental period, the animals were fed ad libitum with standard diet for rodents and running water as drink.
The animals were randomly distributed into 4 experimental groups according to Table 7. The products to be tested were directly used, applying them in the form of a gel on an area of the skin such that each animal form its own control.
The test was performed following the method described by Winder et al. ["A study of Pharmacological influences on ultraviolet erythema in guinea pigs". Arch. Int Pharmacodyn, 116:261-292; 1958] and by other authors [Wendy et al. "The local antinociceptive and topical antiinflamatory effects of propyl gallate in rodents". Br. J. Pharmacol, 58:573 -581; 1976; Katiyar et al. "Protective Effects of Silymarin Against Photocarcinogenesis in a Mouse Skin Model". J Natl Cancer Inst 89:556-65; 1997] with slight modifications. The day […] the assay, as much hair as possible were removed from the animals by applying a layer of commercial hair-removing cream to remove all the trace of hair and to leave the skin of the back completely bare. The rest of the hair-removing cream were removed by means of washing and rinsing with running water and the animals were the returned to their corresponding cages where they remained until the following day.
On the day of the assay, the substances to be assayed were blindly applied on the back of the previously labelled animals following a random pattern (randomized). After applying the corresponding treatments, the animals were placed and pinned to the presentation platform of the equipment. The animals were then placed 8 cm from an ultraviolet light source of 4*40w with 313 nm of fundamental emission and a range comprised approximately between 290 and 350 nm and with an anti-UVC filter. The emission spectrum of said light source is depicted in Figure 1.
The exposure was maintained until all the animals have received an approximate total dose of 2.5 kJ/m^2. The dose of irradiation applied was determined by means of a ultraviolet light detector, the response curve of which is shown in Figure 2.
Twenty four hours after ending the exposure, the back of the animals was photographed and they were returned to their cages. The evaluation of erythema was performed by means of a positive/negative criterion, the percentage of protected animals being obtained. The statistic significance of the difference was evaluated by means of the non-parametric Fisher Test.

[5] = tested on: MCF-7 breast cancer cell line; test: E-Screen cell proliferation test; assay type: cell-based, human; conditions: MCF-7 cells; for Proliferative effect (PE) Mean: 144 hours, negative control = 1
Source text: The E-Screen proliferation test is based on the use of MCF-7 breast cancer cell line. The MCF-7 cells [which endogenously expressed the estrogen receptor alpha (ERα)], respond to the treatment with estradiol increasing its proliferative rate, synthesizing new proteins and transcribing certain specific genes. […] The test compares the number of cells or the cell proliferation obtained after 6 days of culture. The cells grow in culture medium supplemented with human serum lacking of estrogens, in the presence and/or absence of estradiol as well as of the chemical compounds suspected of having estrogenic activity. The E-Screen test was performed following the methodology previously described by Soto et al. ["An in culture bioassay to assess the estrogenicity of xenobiotics. […] Health Perspect. 103:844-850; 1995]. […] The assay was ended after 144 hours of subculture (exponential phase) after drawing out the medium and fixing the cells for the application of sulforhodamine-B technique. Finally, the cell growth for each experimental group is related to the growth obtained for the negative control (absence of hormone) and with respect to estradiol (positive control). Once the E-Screen test is performed, the maximum cell proliferation rate induced by the compound also known as proliferative effect (PE) was established by calculating the ratio existing between the maximum proliferation rate obtained for the compound and the proliferation rate of the negative control. The proliferation data corresponding with the successive dilutions of the compound were transformed after the application of the correction factor for the dilution of each experimental point, the arithmetic mean of the data obtained being calculated. Another parameter is the relative proliferative efficiency (RPE). […] In this assay, the estrogenicity E-Screen test commonly used to identify the hormonal activity of compounds interacting specifically with the estrogen receptor alpha (ERα), has been used. The assays were performed in triplicate for each concentration (range: 300-0.003 µg/ml) in at least three independent experiments.

[6] = tested on: Erythema induced by UVB radiation in mouse; test: Photoprotection: erythema induced by UVB radiation in mouse skin; assay type: in vivo; conditions: intensity of erythema in application area versus surrounding non treated area (subjective criterion); 0.5% gel topical; listed as m-nitrotophine
[7] = UV spectrum: wavelengths of maximum absorption and absorbance (Cecil 2021 UV-Visible Spectrophotometer); assay type: physicochemical

O=[N+]([O-])c1cccc(-c2nc(-c3ccccc3)c(-c3ccccc3)[nH]2)c1 [m-nitrolophine, 2-(3-nitrophenyl)-4,5-diphenyl-1H-imidazole]
maximum absorption [1]: 309 nm | solubility [2]: ~200 µg/mL (≈ 586 µM) | photodecomposition product [3]: 5.7 mg | Erythema induced by UVB radiation in mouse ([4]; individual animals No. 1-10): - | % Protection [4]: 100% | % Protection ([4]; listed as m-nitrotophine): 100%* | estrogenicity ([5]; E-Screen, conclusion in words): not an estrogenic compound for the receptor alpha | Proliferative effect (PE) Mean ([5]; 3x10^-1 mg/ml): 1.45 | Proliferative effect (PE) Mean ([5]; 3x10^-2 mg/ml): 1.30 | Proliferative effect (PE) Mean ([5]; 3x10^-3 mg/ml): 1.19 | Proliferative effect (PE) Mean ([5]; 3x10^-4 mg/ml): 1.10 | Proliferative effect (PE) Mean ([5]; 3x10^-5 mg/ml): 1.08 | Proliferative effect (PE) Mean ([5]; 3x10^-6 mg/ml): 1.06 | proliferative effect ([5]; all the tested concentrations range (300-0.003 µg/ml)): lower than 1.5 | % Suppression [6]: 60 - 80%* | UV spectrum A (a.u) ([7]; absorbance at the maximum of the same line): 1.194 a.u | UV spectrum λ (nm) ([7]; wavelengths of the maximum absorption): 309.0 nm
